The record followed here is US20250235543A1, “MODIFIED PROTEINS AND PROTEIN DEGRADERS” (Cullgen (Shanghai), Inc., priority 2021, published 2025).

One test deals with NCI-H522. The experiment in a line: Cell viability assay, NCI-H522. The format is cell-based. Conditions: Homo sapiens, 72 h; NCI-H522, NSCLC, 3 days; read-out: Cellular Anti-proliferation activity (IC50). As for the experimental part: (§1) Cells were treated with CDK4/6 inhibitors palbociclib, ribociclib, or abemaciclib, or heterobifunctional compounds CPD-002 or CPD-031 following a 9-point serial dilution for 3 days.
(§2) Cells were seeded at a density of 2,000-5,000 cells per well in 96-well assay plates and treated with test compounds following a 10-point serial dilution for 3-6 days. Cell viability was determined using the CellTiter-Lumi assay kit according to the manufacturer's instructions. The dose-response curves were determined and IC50 values were calculated using the GraphPad Prism software following a nonlinear regression (least squares fit) method. Data presented was mean±standard deviation (SD) unless otherwise indicated.

The subject of a further test is MDA-MB-157. The experiment in a line: Cell viability assay, MDA-MB-157. Conditions: Homo sapiens, 72 h; MDA-MB-157, TNBC, 3 days; read-out: Cellular Anti-proliferation activity (IC50). The format is cell-based. How it is done: as §1, §2
A further test relates to Cal-62. The experiment in a line: Cell viability assay, Cal-62. The format is cell-based. Conditions: Homo sapiens, 72 h; Cal-62, TC, 3 days; read-out: Cellular Anti-proliferation activity (IC50). As for the experimental part: as §1, §2
The test system of the next test is OVCAR3. The experiment in a line: Cell viability assay, OVCAR3. The format is cell-based. The following applies: Homo sapiens, OVCAR-3, 72 h; OVCAR3, OC, 3 days; read-out: Cellular Anti-proliferation activity (IC50). As for the experimental part: as §1, §2
The target of a further test is T1, CDK4 (Homo sapiens, UniProt P11802).
T1 construct: endogenous in cells; host or cells: Calu-1
T1 sequence (P11802 2-303 limits assumed): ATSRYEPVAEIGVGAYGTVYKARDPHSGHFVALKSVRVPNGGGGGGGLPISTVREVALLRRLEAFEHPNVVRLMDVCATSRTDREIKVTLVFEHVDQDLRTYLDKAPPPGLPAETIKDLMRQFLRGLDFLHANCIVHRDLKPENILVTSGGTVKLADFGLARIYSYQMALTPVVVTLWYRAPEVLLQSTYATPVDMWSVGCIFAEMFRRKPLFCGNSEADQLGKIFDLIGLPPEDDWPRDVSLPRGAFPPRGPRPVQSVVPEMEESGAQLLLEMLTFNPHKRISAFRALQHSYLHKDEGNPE
T1 sequence (P24385 whole entry partner): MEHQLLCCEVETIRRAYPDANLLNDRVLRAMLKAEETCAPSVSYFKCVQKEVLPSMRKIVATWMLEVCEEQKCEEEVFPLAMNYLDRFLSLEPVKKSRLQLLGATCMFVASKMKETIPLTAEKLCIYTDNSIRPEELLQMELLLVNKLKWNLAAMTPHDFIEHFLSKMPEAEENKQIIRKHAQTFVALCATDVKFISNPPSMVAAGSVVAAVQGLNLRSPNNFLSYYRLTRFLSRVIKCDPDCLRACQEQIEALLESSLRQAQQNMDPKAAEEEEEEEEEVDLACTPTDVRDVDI
T1 sequence (Q16531 2-1140 limits assumed, further chain): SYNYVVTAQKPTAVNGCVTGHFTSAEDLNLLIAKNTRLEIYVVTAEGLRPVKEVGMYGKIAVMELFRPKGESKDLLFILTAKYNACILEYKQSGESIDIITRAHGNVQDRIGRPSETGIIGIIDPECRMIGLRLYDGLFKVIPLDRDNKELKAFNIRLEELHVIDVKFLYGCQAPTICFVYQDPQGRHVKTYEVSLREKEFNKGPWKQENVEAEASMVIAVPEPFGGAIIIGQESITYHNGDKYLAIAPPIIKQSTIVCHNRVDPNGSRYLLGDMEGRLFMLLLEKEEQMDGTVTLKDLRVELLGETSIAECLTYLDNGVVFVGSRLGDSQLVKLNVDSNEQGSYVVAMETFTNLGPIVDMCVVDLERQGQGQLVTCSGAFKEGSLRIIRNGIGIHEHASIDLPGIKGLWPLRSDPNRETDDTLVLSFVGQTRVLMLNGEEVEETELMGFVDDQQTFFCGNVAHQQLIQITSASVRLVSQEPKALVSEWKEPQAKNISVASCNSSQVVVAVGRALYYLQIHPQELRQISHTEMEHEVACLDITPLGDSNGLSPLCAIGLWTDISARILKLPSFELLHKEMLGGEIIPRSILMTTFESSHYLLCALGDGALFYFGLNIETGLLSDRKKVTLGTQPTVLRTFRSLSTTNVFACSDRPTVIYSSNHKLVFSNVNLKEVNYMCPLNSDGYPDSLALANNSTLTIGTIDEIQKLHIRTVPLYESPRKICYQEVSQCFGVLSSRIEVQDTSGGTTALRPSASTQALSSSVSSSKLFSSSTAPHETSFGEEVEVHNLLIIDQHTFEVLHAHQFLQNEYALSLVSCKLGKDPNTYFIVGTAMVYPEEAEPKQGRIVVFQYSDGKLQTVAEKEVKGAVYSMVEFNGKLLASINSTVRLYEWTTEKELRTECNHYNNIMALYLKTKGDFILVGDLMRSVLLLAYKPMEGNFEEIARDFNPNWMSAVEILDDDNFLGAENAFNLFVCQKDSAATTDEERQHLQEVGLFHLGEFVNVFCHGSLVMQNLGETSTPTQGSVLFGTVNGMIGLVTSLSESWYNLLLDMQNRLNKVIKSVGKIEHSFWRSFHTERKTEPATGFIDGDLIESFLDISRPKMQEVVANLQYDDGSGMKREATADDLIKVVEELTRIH
In words: CDK4 percentage degradation in Calu-1 cells (immunoblotting). It is filed as cell-based. Conditions: Calu-1 cells, 200 nM, 16 hours; read-out: CDK4 Degradation (200 nM). The procedure, abridged: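 Cultured cells were rinsed once in cold PBS and lysed in cold RIPA buffer containing protease and phosphatase inhibitors, with gentle agitation at 4° C. for 30 min. Lysates were centrifuged at 13,000 rpm for 10 min at 4° C., and protein was quantified by BCA. Samples were then separated by SDS-PAGE, detected with ECL, and the CDK4 bands quantified in Image Lab.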
For orientation: In western blotting, separated proteins are transferred to a membrane and probed.

A further test relates to MIA PaCa-2. The experiment in a line: Cell viability assay, MIA PaCa-2. The format is cell-based. The following applies: Homo sapiens, 72 h; MIA PaCa-2, PC, 3 days; read-out: Cellular Anti-proliferation activity (IC50). As for the experimental part: as §1, §2
The subject of a further test is MDA-MB-453. In words: Cell viability assay, MDA-MB-453. It is filed as cell-based. The following applies: Homo sapiens, 72 h; MDA-MB-453, TNBC, 3 days; read-out: Cellular Anti-proliferation activity (IC50). As for the experimental part:
as §1, §2

The next test has as its target T2, DDB1 (Homo sapiens, UniProt Q16531, D705G/DEL396-460/DEL463-701/I704S/T703N).
T2 construct: His6 (N, cleaved yes); TEV protease cleavage site (N, cleaved yes); made in house; host or cells: SF9 insect cells, Bac-to-Bac baculovirus, pFastBacHTB vector
The experiment in a line: SPR binding assay to immobilized DDB1ΔBPB. The following applies: binding affinities to DDB1. The procedure, abridged:
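Untagged Sf9-expressed DDB1ΔBPB (BPB domain aa 396-705 replaced by GNGNSG linker) amine-coupled to CM5 chip at 10,000-12,000 RU; 25° C, HBS-EP pH 7.4 with 5% DMSO. Compounds injected multi-cycle at 100 μM-3.125 μM (6-point two-fold); double-referenced, solvent-corrected data fit to steady-state model for Kd.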
(In general: In SPR one partner is held on a chip, and binding of the other changes the refractive index at the surface.)

The subject of test [1] is Calu-1, NCI-H522, BT-549, Hs578T, MIA PaCa-2 or other cells. The experiment in a line: Inhibition of cancer cell growth, 9-point serial dilution in 96-well plates. It is filed as cell-based. Conditions: 3 d treatment.
In the next test the test system is BT-549. The experiment in a line: Cell viability assay, BT-549. The format is cell-based. Conditions: Homo sapiens, 72 h; BT-549, TNBC, 3 days; read-out: Cellular Anti-proliferation activity (IC50). As for the experimental part:
as §1, §2

For a further test, the system named is Calu-1. In words: Cell viability assay, Calu-1. It is filed as cell-based. Conditions: Homo sapiens, 72 h; Calu-1, NSCLC, 3 days; read-out: Cellular Anti-proliferation activity (IC50). In short, it runs like this:
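Cells were exposed to a serial dilution of test compound for 3-6 days, or 3 days with a 9-point series for CDK4/6 inhibitors and heterobifunctional compounds. Viability was read by luminescence (CellTiter-Lumi). IC50 came from nonlinear least-squares regression of dose-response curves, reported as mean±SD.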

The test system of the next test is KURAMOCHI
In words: Cell viability assay, KURAMOCHI
The format is cell-based. Conditions: 72 h, OC, 3 days, read-out: Cellular Anti-proliferation activity (IC50). As for the experimental part: as §1, §2

T2 sequence (Q16531 other isoform, or with tags, fused parts or gaps DEL396-460/DEL463-701/T703N/I704S/D705G): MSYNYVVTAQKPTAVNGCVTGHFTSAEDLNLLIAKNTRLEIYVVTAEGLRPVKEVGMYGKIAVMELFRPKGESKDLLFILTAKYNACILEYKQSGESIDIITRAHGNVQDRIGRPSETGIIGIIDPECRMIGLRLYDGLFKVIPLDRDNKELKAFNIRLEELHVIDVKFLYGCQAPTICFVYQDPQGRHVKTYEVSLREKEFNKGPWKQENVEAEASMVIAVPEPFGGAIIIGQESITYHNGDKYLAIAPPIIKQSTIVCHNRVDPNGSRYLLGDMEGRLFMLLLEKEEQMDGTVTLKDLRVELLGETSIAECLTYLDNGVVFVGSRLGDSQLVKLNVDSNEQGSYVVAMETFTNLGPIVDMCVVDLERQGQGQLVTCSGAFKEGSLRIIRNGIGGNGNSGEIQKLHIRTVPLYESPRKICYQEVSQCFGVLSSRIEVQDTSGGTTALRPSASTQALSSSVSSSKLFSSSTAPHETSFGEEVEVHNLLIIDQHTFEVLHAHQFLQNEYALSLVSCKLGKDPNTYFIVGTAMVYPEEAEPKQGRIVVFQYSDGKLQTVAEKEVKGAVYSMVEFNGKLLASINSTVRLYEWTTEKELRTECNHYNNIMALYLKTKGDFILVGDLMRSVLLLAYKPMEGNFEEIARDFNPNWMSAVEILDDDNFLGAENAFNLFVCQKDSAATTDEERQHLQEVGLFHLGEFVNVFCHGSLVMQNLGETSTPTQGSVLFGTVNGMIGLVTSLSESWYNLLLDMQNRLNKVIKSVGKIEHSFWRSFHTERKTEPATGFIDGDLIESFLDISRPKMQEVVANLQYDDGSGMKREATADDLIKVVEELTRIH

Turning to `CC(=O)c1c(C)c2cnc(Nc3ccc(N4CCN(CC(=O)NCCOCCOCCOCCOCCOCCNc5ccc(C(=O)Nc6ncc(C)s6)c(C)c5)CC4)cn3)nc2n(C2CCCC2)c1=O` [CPD-002, 4-((1-(4-(6-((6-Acetyl-8-cyclopentyl-5-methyl-7-oxo-7,8-dihydropyrido[2,3-d]pyrimidin-2-yl)amino)pyridin-3-yl)piperazin-1-yl)-2-oxo-6,9,12,15,18-pentaoxa-3-azaicosan-20-yl)amino)-2-methyl-N-(5-methylthiazol-2-yl)benzamide], the IC50 with NCI-H522 is 638 nM; with MDA-MB-157, 151 nM; in the test with Cal-62, 50 nM; in the test with OVCAR3, 107 nM; in the test with MIA PaCa-2, 175 nM; in the test on MDA-MB-453 it was 741 nM. For the same compound, the figures for the IC50 with BT-549, in the test with Calu-1 and with KURAMOCHI were 690 nM, 68 nM and 920 nM, respectively. Moreover, the inhibition at 0.2 µM on CDK4 fell in the range of 50 to 80%. Also, the Kd on DDB1 lay within 20000 to 50000 nM. In [1], the “potency at inhibition of multiple cancer cell lines versus CDK4/6 inhibitors” value is “significantly more potent than palbociclib, ribociclib, and abemaciclib”.
Turning to `CC(=O)c1c(C)c2cnc(Nc3ccc(N4CCN(CC(=O)NCCOCCOCCOCCOCCOCCNc5ccc(C(=O)Nc6nc(C)c(C)s6)c(C)c5)CC4)cn3)nc2n(C2CCCC2)c1=O` [CPD-031, 4-((1-(4-(6-((6-Acetyl-8-cyclopentyl-5-methyl-7-oxo-7,8-dihydropyrido[2,3-d]pyrimidin-2-yl)amino)pyridin-3-yl)piperazin-1-yl)-2-oxo-6,9,12,15,18-pentaoxa-3-azaicosan-20-yl)amino)-N-(4,5-dimethylthiazol-2-yl)-2-methylbenzamide], the IC50 in the test on NCI-H522 is 155 nM; in the test with MDA-MB-157, 28 nM; with Cal-62, 5 nM; in the test with OVCAR3 it was 39 nM; in the test on MIA PaCa-2, 57 nM; in the test on MDA-MB-453, 300 nM. Besides, the figures for the IC50 in the test with BT-549, with Calu-1 and with KURAMOCHI were 110 nM, 9 nM and 190 nM, respectively. For the same compound, the inhibition at 0.2 µM at CDK4 is greater than 80%. The compound further returned a Kd on DDB1 of less than 20000 nM. In test [1], the “potency at inhibition of multiple cancer cell lines versus CDK4/6 inhibitors” value is “significantly more potent than palbociclib, ribociclib, and abemaciclib”.

By Kd is commonly meant the concentration at which binding is half-saturated. A low value points to a tighter complex.
